In patent US5747447A, “Stable polypeptide composition” (COR Therapeutics, priority 1995, dated 1998) one finds IC50 and IC20 data, which are given here for 13 compounds.

Broadly, the IC50 is the concentration needed to halve the response being measured. As usually defined, the IC20 is the point of the concentration-response curve where the effect stands at 20%.

*1 amine or outer side, *2 acyl side, *3 side chain or, on linkers, in order; H or OH if unused. Where a SMILES comes first, the peptide text is derived from it. Bridges are numbered along the chain shown (N, C = ends). Where no end group is shown, it is not given here. [ ]: non-standard residue; d: D form. Phe(4-NO2) = N[C@@H](Cc1ccc([N+](=O)[O-])cc1)C(=O)O; X1 = N=C(NCCCC[C@H](N[*:1])C(=O)[*:2])c1ccccc1; 2Nal = N[C@@H](Cc1ccc2ccccc2c1)C(=O)O; NMeF = CN[C@@H](Cc1ccccc1)C(=O)O; hArg = N=C(N)NCCCC[C@H](N)C(=O)O; Pen = CC(C)(S)[C@H](N)C(=O)O; Thz = O=C(O)[C@@H]1CSCN1; Mpa = O=C(O)CCS; Sar = CNCC(=O)O Bounds are passed on as bounds.

In the first assay the target is ADP-induced human platelet aggregation (Homo sapiens, UniProt P05106+P08514). The experiment in a line: standard aggregation inhibition assay (ADP-induced human platelet aggregation). The format is cell-based. As to conditions: ADP-induced human platelet aggregation; read-out: Appr, IC50. The source says: 2. Standard assays directly applied to platelet aggregation, such as those described by Gann, Z.-R., et al., J Biol Chem (1988) 263:19827-19832; Huang, T. F., et al., J Biol Chem (1987) 262:16157-16163; Biochemistry (1989) 28:661-666, cited above and incorporated herein by reference;
ADP-induced human platelet aggregation, sequence (P08514 32-1039): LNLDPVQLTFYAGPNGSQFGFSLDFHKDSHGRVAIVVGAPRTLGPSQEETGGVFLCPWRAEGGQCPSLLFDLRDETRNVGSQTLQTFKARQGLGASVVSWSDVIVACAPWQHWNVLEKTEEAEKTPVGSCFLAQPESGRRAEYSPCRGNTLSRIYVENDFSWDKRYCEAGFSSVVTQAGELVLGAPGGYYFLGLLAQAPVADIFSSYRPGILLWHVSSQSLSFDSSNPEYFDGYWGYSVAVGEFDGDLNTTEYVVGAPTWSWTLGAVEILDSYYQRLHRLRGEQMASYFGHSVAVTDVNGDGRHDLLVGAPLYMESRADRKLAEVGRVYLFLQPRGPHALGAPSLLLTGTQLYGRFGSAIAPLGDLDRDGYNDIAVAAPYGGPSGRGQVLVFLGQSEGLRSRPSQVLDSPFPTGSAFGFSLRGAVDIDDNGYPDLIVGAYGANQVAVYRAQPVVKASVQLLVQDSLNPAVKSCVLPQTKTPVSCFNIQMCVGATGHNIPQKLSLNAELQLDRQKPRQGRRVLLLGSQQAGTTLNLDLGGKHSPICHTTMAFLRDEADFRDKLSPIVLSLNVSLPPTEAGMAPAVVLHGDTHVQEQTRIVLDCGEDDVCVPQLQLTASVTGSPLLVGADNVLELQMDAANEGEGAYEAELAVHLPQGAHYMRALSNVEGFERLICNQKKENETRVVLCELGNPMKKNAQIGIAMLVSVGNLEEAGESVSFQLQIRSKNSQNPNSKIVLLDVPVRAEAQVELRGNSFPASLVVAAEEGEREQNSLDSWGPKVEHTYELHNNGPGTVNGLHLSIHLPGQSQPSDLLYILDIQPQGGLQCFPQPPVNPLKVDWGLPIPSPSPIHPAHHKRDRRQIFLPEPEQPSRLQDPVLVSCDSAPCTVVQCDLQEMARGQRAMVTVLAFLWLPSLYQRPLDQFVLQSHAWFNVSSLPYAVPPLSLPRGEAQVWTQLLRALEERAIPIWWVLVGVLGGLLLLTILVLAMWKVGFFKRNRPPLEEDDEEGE
ADP-induced human platelet aggregation, sequence (P05106 27-788): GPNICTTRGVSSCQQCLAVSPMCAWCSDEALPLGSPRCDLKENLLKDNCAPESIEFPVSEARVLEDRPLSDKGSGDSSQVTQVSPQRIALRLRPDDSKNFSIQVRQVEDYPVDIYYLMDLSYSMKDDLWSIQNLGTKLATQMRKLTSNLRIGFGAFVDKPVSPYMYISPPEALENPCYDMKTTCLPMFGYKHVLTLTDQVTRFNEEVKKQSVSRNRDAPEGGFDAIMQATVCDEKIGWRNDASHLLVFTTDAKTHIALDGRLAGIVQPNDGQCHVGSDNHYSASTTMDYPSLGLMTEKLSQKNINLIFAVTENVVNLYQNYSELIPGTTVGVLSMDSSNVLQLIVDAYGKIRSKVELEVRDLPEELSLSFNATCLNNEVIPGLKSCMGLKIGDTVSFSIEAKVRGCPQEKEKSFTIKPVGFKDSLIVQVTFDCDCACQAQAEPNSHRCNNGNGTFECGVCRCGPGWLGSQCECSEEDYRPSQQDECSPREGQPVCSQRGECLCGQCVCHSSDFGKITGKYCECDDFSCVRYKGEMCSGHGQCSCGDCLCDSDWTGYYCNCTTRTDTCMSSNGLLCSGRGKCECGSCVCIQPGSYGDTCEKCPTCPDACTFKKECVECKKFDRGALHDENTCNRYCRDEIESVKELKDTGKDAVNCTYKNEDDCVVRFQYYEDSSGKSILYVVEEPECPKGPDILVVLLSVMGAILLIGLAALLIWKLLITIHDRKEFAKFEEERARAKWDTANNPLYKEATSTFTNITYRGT
As to `CC1(C)SSCCC(=O)N[C@@H](CCCCNC(=N)c2ccccc2)C(=O)NCC(=O)N[C@@H](CC(=O)O)C(=O)N[C@@H](Cc2c[nH]c3ccccc23)C(=O)N2CCC[C@H]2C(=O)N[C@@H]1C(N)=O` [Analog #72, Mpr-(Phenylimidyl-Lys)-G-D-W-P-Pen-NH2] ([Mpa][X1]GDWP[Pen]-NH2; disulfide 1-7), the 50% inhibitory concentration (IC50) was 0.5 µM. With `NCCCC[C@@H]1NC(=O)CCSSC[C@@H](C(N)=O)NC(=O)[C@@H]2CSCN2C(=O)[C@H](Cc2c[nH]c3ccccc23)NC(=O)[C@H](CC(=O)O)NC(=O)CNC1=O` [Analog #55, Mpr-K-G-D-W-(Thz)-C-NH2] ([Mpa]KGDW[Thz]C-NH2; disulfide 1-7), the IC50 came to 2 µM. Take `CN1CC(=O)N[C@@H](CC(=O)O)C(=O)N[C@@H](Cc2c[nH]c3ccccc23)C(=O)N2CCC[C@H]2C(=O)N[C@H](C(N)=O)C(C)(C)SSCCC(=O)N[C@@H](CCCCNC(=N)N)C1=O` [Analog #71, Mpr-Har-Sar-D-W-P-Pen-NH2] ([Mpa][hArg][Sar]DWP[Pen]-NH2; disulfide 1-7): the concentration for half-maximal inhibition (IC50) amounted to 2.5 µM. On the same count and under the same terms, next, `CC1(C)SSCCC(=O)N[C@@H](CCCCN)C(=O)NCC(=O)N[C@@H](CC(=O)O)C(=O)N[C@@H](Cc2c[nH]c3ccccc23)C(=O)N2CCC[C@@H]2C(=O)N[C@@H]1C(N)=O` [Analog #53, Mpr-K-G-D-W-P.dagger.-Pen-NH2] ([Mpa]KGDW[dP][Pen]-NH2; disulfide 1-7): above 200 µM. As to `NCCCC[C@@H]1NC(=O)CCSSC[C@H](C(N)=O)NC(=O)[C@@H]2CCCN2C(=O)[C@H](Cc2c[nH]c3ccccc23)NC(=O)[C@H](CC(=O)O)NC(=O)CNC1=O` [Analog #61, Mpr-K-G-D-W-P-C.dagger.-NH2] ([Mpa]KGDWP[dC]-NH2; disulfide 1-7), the 50% inhibitory concentration (IC50) was determined as 15 µM. Regarding “CKGDYPC-NH2 (cysteine pairing not given here) [Analog #12]”, the IC50 worked out at 12 µM. Regarding `CN1C(=O)[C@H](CC(=O)O)NC(=O)CNC(=O)[C@H](CCCCN)NC(=O)[C@@H](N)CSSC[C@@H](C(N)=O)NC(=O)[C@@H]2CCCN2C(=O)[C@@H]1Cc1ccccc1` [Analog #45, C-K-G-D-(NMePhe)-P-C-NH2] (H-CKGD[NMeF]PC-NH2; disulfide 1-7), the 50% inhibitory concentration (IC50) is above 200 µM. In the case of “CKGDWGC-NH2 (cysteine pairing not given here) [Analog #34]”, the 50% inhibitory concentration (IC50) was 100 µM.

Take `NCCCC[C@@H]1NC(=O)[C@@H](N)CSSC[C@@H](C(N)=O)NC(=O)[C@@H]2CCCN2C(=O)[C@H](Cc2ccc([N+](=O)[O-])cc2)NC(=O)[C@H](CC(=O)O)NC(=O)CNC1=O` [Analog #44, C-K-G-D-(4-NO2 -Phe)-P-C-NH2] (H-CKGD[Phe(4-NO2)]PC-NH2; disulfide 1-7): the half-maximal inhibitory concentration (IC50) is 75 µM. Same read-out and setting: next, “[Mpa]KGD[2Nal]P[Pen]-NH2 (cysteine pairing not given here) [Analog #57]”: 1 µM; `CC1(C)SSCCC(=O)N[C@@H](CCCCN)C(=O)NCC(=O)N[C@@H](CC(=O)O)C(=O)N[C@@H]1C(N)=O` [Analog #9, Mpr-K-G-D-Pen-NH2] ([Mpa]KGD[Pen]-NH2; disulfide 1-5): 25 µM.

The assay is the same for the next values; noted with them: PAI activity, Example 15; read-out: Appr.IC20.
`N=C(N)NCCCC[C@@H]1NC(=O)CCSSC[C@@H](C(N)=O)NC(=O)[C@@H]2CCCN2C(=O)[C@@H]2CCCN2C(=O)[C@H](Cc2c[nH]c3ccccc23)NC(=O)[C@H](CC(=O)O)NC(=O)CNC1=O` [PAI 97, Mpr-Har-G-D-W-P-P-C-NH2] ([Mpa][hArg]GDWPPC-NH2; disulfide 1-8): the IC20 turned out to be 1.4 µM.

Regarding `CN1CC(=O)N[C@H](C(N)=O)CSSCCC(=O)N[C@@H](CCCCNC(=N)N)C(=O)NCC(=O)N[C@@H](CC(=O)O)C(=O)N[C@@H](Cc2c[nH]c3ccccc23)C(=O)N2CCC[C@H]2C1=O` [PAI 98, Mpr-Har-G-D-W-P-(Sar)-C-NH2] ([Mpa][hArg]GDWP[Sar]C-NH2; disulfide 1-8), the IC20 was determined as 0.31 µM.
